Assay [1] has as its target T1, Tyrosine-protein phosphatase non-receptor type 11 (Homo sapiens, UniProt Q06124).
T1 sequence (Q06124 whole entry): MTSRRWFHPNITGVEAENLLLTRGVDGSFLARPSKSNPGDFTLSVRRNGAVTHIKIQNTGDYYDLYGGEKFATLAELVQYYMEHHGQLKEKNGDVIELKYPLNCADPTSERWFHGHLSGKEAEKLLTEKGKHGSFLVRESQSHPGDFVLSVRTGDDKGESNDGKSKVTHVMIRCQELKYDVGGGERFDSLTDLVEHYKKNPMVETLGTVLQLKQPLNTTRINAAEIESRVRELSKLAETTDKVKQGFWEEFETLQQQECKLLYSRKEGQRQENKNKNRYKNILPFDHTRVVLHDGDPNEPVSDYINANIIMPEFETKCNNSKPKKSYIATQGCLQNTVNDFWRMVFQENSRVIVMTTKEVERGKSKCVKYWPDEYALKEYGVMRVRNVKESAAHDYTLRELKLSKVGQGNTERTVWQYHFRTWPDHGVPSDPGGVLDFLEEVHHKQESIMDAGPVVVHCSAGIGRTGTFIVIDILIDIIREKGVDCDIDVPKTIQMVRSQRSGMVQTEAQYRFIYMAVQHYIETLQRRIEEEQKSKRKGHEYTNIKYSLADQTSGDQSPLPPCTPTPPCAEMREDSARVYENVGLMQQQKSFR
Put plainly: Inhibition of GST fused SHP2 PTP domain (unknown origin) using Thr-Arg-Asp-Ile-Tyr[PO3H2]-Glu-Thr-Asp-Tyr-Tyr as substrate incubated for 30 mins by malachite green staining based analysis.

For assay [2], the target named is T1, Tyrosine-protein phosphatase non-receptor type 11. Put plainly: Binding affinity to SHP2 (unknown origin) assessed as inhibition constant.
Assay [3] deals with T2, Receptor-type tyrosine-protein phosphatase O (Homo sapiens, UniProt Q16827).
T2 sequence (Q16827 whole entry): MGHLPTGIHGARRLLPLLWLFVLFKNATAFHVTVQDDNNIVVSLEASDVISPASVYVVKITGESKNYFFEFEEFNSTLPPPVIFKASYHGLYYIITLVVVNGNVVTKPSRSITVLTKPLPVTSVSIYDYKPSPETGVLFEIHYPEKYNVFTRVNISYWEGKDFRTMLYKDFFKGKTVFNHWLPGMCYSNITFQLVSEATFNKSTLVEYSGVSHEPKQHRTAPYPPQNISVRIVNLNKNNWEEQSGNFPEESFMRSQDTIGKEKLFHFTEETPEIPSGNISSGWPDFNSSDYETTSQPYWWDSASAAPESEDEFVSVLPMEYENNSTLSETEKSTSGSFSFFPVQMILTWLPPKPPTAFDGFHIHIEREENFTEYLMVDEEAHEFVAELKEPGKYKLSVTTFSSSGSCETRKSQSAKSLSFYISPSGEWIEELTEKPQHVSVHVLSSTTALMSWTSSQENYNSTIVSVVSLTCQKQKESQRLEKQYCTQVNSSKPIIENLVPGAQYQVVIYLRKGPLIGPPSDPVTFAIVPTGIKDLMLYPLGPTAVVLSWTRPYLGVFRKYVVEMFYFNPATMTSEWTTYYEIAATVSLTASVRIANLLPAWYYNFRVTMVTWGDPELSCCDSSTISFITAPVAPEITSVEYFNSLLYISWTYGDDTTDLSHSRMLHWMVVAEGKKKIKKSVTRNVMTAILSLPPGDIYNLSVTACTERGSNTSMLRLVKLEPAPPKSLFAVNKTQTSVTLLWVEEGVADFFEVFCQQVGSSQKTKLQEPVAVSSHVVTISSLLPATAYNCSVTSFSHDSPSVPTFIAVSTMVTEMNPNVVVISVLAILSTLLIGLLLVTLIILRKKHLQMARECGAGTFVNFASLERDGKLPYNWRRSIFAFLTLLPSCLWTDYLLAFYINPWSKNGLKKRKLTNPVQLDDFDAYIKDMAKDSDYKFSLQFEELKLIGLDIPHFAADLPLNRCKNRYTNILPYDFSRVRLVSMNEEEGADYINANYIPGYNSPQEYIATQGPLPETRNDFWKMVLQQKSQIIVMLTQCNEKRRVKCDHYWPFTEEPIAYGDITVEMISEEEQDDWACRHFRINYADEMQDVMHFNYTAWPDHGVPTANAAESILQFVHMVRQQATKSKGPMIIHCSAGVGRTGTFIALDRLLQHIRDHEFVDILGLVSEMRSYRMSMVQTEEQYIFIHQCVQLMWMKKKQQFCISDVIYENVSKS
Put plainly: Binding affinity to GLEPP1 (unknown origin) assessed as inhibition constant.

Another assay relates to BaF3. Put plainly: Antiproliferative activity against mouse BaF3 cells assessed as cell growth inhibition measured after 48 hrs by MTS assay. The format is functional, cell-based. The conditions noted are these: BaF3, 48 h.
In assay [4] the target is Tyrosine-protein phosphatase non-receptor type 6 (Homo sapiens, UniProt P29350). Put plainly: Inhibition of SHP1 (unknown origin).
Sequence of Tyrosine-protein phosphatase non-receptor type 6 (P29350 whole entry, the tested form may be a part): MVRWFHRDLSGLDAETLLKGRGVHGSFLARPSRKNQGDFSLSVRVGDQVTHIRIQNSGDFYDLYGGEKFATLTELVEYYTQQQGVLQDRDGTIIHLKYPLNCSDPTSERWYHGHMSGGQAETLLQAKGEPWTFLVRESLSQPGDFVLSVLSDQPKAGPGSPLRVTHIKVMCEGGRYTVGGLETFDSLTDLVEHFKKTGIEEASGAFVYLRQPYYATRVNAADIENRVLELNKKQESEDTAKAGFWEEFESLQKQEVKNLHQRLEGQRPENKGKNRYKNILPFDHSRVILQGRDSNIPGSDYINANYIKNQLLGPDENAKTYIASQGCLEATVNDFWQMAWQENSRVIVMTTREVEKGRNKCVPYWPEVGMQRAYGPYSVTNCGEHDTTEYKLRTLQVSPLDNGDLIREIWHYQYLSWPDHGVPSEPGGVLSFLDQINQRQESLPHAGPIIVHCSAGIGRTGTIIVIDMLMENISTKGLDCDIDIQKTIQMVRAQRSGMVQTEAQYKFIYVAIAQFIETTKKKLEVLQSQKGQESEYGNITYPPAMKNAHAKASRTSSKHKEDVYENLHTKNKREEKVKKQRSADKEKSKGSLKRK
For assay [5], the target named is T1, Tyrosine-protein phosphatase non-receptor type 11. Put plainly: Inhibition of GST fused SHP2 PTP domain (unknown origin) using EFpYAEVGRSPPDPAK peptide as substrate incubated for 30 mins by malachite green staining based analysis.
Assay [6] has the same target. Put plainly: Inhibition of SHP2 (unknown origin).
Assay [7] shares this target. Put plainly: Inhibition of human SHP2 (225 to 541 residues) using pNPP as substrate by microplate reader based analysis.
Assay [8] shares this target. Description: Inhibition of SHP2 (unknown origin) using pNPP as substrate by spectrophotometer analysis.
Assay [9] has the same target. Put plainly: Inhibition of human His6-tagged wild type SHP2 PTP domain using pNPP as substrate by absorbance based analysis.
In assay [10] the target is Tyrosine-protein phosphatase non-receptor type 11 (Homo sapiens) (UniProt Q06124). Description: Inhibition of SHP2 (unknown origin) at 100 ug/ml. The conditions noted are these: dose 100.0 µg/ml.

Among the data in ChEMBL document CHEMBL5233224, “Therapeutic potential of targeting SHP2 in human developmental disorders and cancers” (Eur J Med Chem, 2020) are IC50, Ki and inhibition values, retold here.

`Cc1cc(C)c2c(c1)[nH]c1nnc(SCC(=O)NCc3cccs3)nc12`: the IC50 – broadly, the midpoint of a concentration-inhibition curve – in assay [1] stood at 13.9 µM. Turning to `CCCCCCN(Cc1ccc(C#Cc2ccc(CCCC)cc2)cc1)c1ccc(O)c(C(=O)O)c1`, the figures for the Ki in assay [2] and in assay [3] were 0.652 µM and 0.123 µM, respectively.

On to `O=C(CCn1cnc2sc3c(c2c1=O)CCCCC3)Nc1ccccc1[N+](=O)[O-]`, for which the IC50 was 10.7 µM in the assay with BaF3, over 100 µM in [4] and 9.97 µM in [5]. Regarding `COc1cccc(-c2nnc3n(Cc4ccc(C(=O)N5CCC[C@H]5C(=O)O)cc4Cl)c(=O)c4ccccc4n23)c1O`, 18.9 µM corresponded to half-maximal inhibition in assay [6] (IC50).

For the compound `CCOC(=O)c1ccc(N2N=C(c3ccc([N+](=O)[O-])cc3)/C(=N/Nc3ccc(S(=O)(=O)O)cc3)C2=O)cc1`, inhibition in assay [7] was half-maximal at 0.63 µM (IC50). As for `C=C/C(=C/C(=O)C[C@H](C)C[C@@H](C)CC[C@H](O)[C@H](C)C(=O)C[C@@H](O)[C@H](C)[C@@H](C)OC(=O)C[C@@H](O)/C(C(=O)O)=C(\C)C(=O)O)CC`, it took 2.9 µM to reach half-maximal inhibition in assay [8] (IC50).

As to `C=CC(=O)Nc1ccnc2ccccc12`, the IC50 in [9] came to 35 µM. In assay [6], `O=C1C=CC(=O)C(c2cc(Cl)ccc2Cl)=C1` showed an IC50 of 0.4 µM. The same measure, in the same setting: next, `O=C(O)c1ccc(O)c(-c2nnc3n(Cc4ccccc4Cl)c(=O)c4ccccc4n23)c1`: 21 µM.

Regarding “(3R,4S,5R)-1-(((3S,4R,5R)-3-(carboxymethyl)-1-hydroxy-5-((R)-1-hydroxypropan-2-yl)-2,6,7-trioxa-1l5-stibabicyclo[2.2.1]heptan-1-yl)oxy)-5-((R)-1,2-dihydroxyethyl)-1-hydroxy-2,6,7-trioxa-1l5-stibabicyclo[2.2.1]heptane-3-carboxylic acid”, the inhibition (usually the share of the control response that was lost under treatment) in assay [10] worked out at 99%.
